One series concerns Zymoseptoria tritici. In words: Test A: wheat leaf blotch, preventive spray on wheat seedlings. The class given is in vivo. To be noted: 100 = 100% disease control, 0 = no control; for pest or weed control at 50 ppm / Test A disease control rating: 50 ppm. The gist of the method: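 Wheat seedlings were sprayed to run-off with compound in acetone/water 50/50 containing 250 ppm PEG400 and inoculated with Z. tritici spores the next day. Plants were held 48 h saturated at 24 °C, then 17 days at 20 °C. Disease was rated 0–100% control relative to controls.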

For series [1], the system named is Puccinia recondita f. sp. tritici. In words: Test B: wheat leaf rust, preventive spray on wheat seedlings. The format is in vivo. Particulars: 100 = 100% disease control, 0 = no control; for pest or weed control at 50 ppm / Test B disease control rating: 50 ppm. The essentials:
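Wheat seedlings sprayed to run-off with compound suspended at set ppm in 50/50 acetone/water (3% acetone pre-dissolution, 250 ppm PEG400); inoculated with rust spores next day. Held 24 h saturated at 20° C., then 7 days in growth chamber at 20° C.; visual rating, 0–100% disease control versus controls.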

For series [2], the system named is Blumeria graminis f. sp. tritici. In words: Test C: wheat powdery mildew, preventive spray on wheat seedlings. The format is in vivo. Particulars: 100 = 100% disease control, 0 = no control; for pest or weed control at 50 ppm / Test C disease control rating: 50 ppm. The gist of the method:
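Preventive assay: wheat seedlings sprayed to run-off with compound at the stated ppm (acetone/water 50/50, 250 ppm PEG400), dusted with B. graminis f. sp. tritici spores the following day, then kept 8 days at 20°C. Disease control visually scored 0-100 versus controls.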

The test system of the next series is Phakopsora pachyrhizi. The experiment in a line: Test D: Asian soybean rust, preventive spray on soybean seedlings. The format is in vivo. To be noted: 100 = 100% disease control, 0 = no control; for pest or weed control at 50 ppm / Test D disease control rating: 50 ppm. The gist of the method: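 Soybean seedlings sprayed to run-off with compound suspension (ppm, in 50/50 acetone/water with 250 ppm PEG400), inoculated next day with P. pachyrhizi spores, held 24 h saturated at 22°C then 8 days at 22°C. Visual rating 0-100% disease control relative to controls.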

The subject of the next series is Botrytis cinerea. In words: Test E: tomato Botrytis, preventive spray on tomato seedlings. The class given is in vivo. Particulars: 100 = 100% disease control, 0 = no control; for pest or weed control at 50 ppm / Test E disease control rating: 50 ppm. The essentials: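 Compounds dissolved in acetone (3% of final volume), suspended in 50/50 acetone/water with 250 ppm PEG400, sprayed to run-off on seedlings. Spore inoculation next day; 48 h saturated atmosphere at 20° C, then 3 days at 24° C. Visual disease rating 0–100% control relative to controls.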

For another series, the system named is Alternaria solani. In words: Test F: tomato early blight, preventive spray on tomato seedlings. The class given is in vivo. Particulars: 100 = 100% disease control, 0 = no control; for pest or weed control at 50 ppm / Test F disease control rating: 50 ppm. The gist of the method: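 Compounds in acetone/water (50/50) with 250 ppm PEG400 were sprayed to run-off on tomato seedlings and inoculated with Alternaria solani spores the next day. Plants were held in saturated humidity at 27° C for 48 h, then at 20° C for 3 days. Disease control was rated visually, 0–100, against controls.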

Setting [3] is: Zymoseptoria tritici, read-out: Test A disease control rating.
Setting [4] is: Puccinia recondita, read-out: Test B disease control rating.
Where [5] appears, read: Blumeria graminis, read-out: Test C disease control rating.
Where [6] appears, read: Phakopsora pachyrhizi, 216 h, read-out: Test D disease control rating.
[7] abbreviates: Botrytis cinerea, read-out: Test E disease control rating.
Setting [8] is: Alternaria solani, read-out: Test F disease control rating.

The source of these data is US20240215577A1, “FUNGICIDAL PYRIDONES” (FMC Corporation, priority 2021, published 2024).

As to `COc1ccc(Br)c(-c2cn(C)c(=O)c(Cl)c2-c2ccc(F)cc2F)c1` [Compound 20, 5-(2-bromo-5-methoxyphenyl)-3-chloro-4-(2,4-difluorophenyl)-1-methyl-2(1H)-pyridinone], the melting point (usually the temperature of the solid-liquid transition) was 227 to 230 °C. In the series on Zymoseptoria tritici (setting [3]), the pest or weed control at 50 ppm was found to be 100%. Besides, the pest or weed control at 50 ppm in series [1] (setting [4]) was determined as 100%. The pest or weed control at 50 ppm in series [2] (setting [5]) was 98%. Moreover, the pest or weed control at 50 ppm in the series on Phakopsora pachyrhizi (setting [6]) stood at 97%. In the series with Botrytis cinerea (setting [7]), the pest or weed control at 50 ppm is 98%. The pest or weed control at 50 ppm with Alternaria solani (setting [8]) was 99%.
As to `Cn1cc(-c2cc(F)ccc2F)c(-c2ccc(F)cc2Cl)c(Cl)c1=O` [Compound 24], in the series on Zymoseptoria tritici, the “Test A disease control rating” value is given as 96%. Besides, the “Test B disease control rating” value in series [1] is 96%. In addition, in series [2], the “Test C disease control rating” value was 0%. For the same compound, in the series on Phakopsora pachyrhizi, the “Test D disease control rating” value is 0%. The “Test E disease control rating” value in the series with Botrytis cinerea amounted to 85%. Besides, the “Test F disease control rating” value in the series on Alternaria solani came to 0%.
Turning to `CCc1c(-c2ccc(F)cc2Cl)c(-c2cc(F)ccc2Cl)cn(C)c1=O` [Compound 23], in the series with Zymoseptoria tritici, the “Test A disease control rating” value is given as 100%. Also, the “Test B disease control rating” value in series [1] was 100%. Besides, the “Test C disease control rating” value in series [2] was 99%. Besides, the “Test D disease control rating” value in the series on Phakopsora pachyrhizi was determined as 0%. Further, the “Test E disease control rating” value in the series with Botrytis cinerea is given as 69%. For the same compound, in the series on Alternaria solani, the “Test F disease control rating” value was 83%.
For `Cn1cc(-c2sccc2Cl)c(-c2ccc(F)cc2Cl)c(Cl)c1=O` [Compound 55], in the series with Zymoseptoria tritici, the “Test A disease control rating” value stood at 96%. In addition, in series [1], the “Test B disease control rating” value came out at 90%. In series [2], the “Test C disease control rating” value amounted to 0%. For the same compound, the “Test D disease control rating” value with Phakopsora pachyrhizi turned out to be 0%. In addition, in the series with Botrytis cinerea, the “Test E disease control rating” value is 97%. For the same compound, in the series with Alternaria solani, the “Test F disease control rating” value was 0%.
For `COc1ccc(Cl)c(-c2cn(C)c(=O)cc2-c2ccccc2Br)c1` [Compound 62], the “Test A disease control rating” value in the series with Zymoseptoria tritici worked out at 37%. Also, in series [1], the “Test B disease control rating” value is listed as 74%. Further, the “Test C disease control rating” value in series [2] is listed as 0%. Besides, the “Test D disease control rating” value with Phakopsora pachyrhizi is on record as 0%. Besides, the “Test E disease control rating” value in the series with Botrytis cinerea is given as 98%. For the same compound, the “Test F disease control rating” value in the series on Alternaria solani stood at 0%.
With `COc1cc(OC)cc(-c2cn(C)c(=O)c(Cl)c2-c2ccc(F)cc2F)c1` [Compound 25], in the series on Zymoseptoria tritici, the “Test A disease control rating” value came to 100%. Also, the “Test B disease control rating” value in series [1] was 100%. In series [2], the “Test C disease control rating” value is given as 0%. Also, the “Test D disease control rating” value with Phakopsora pachyrhizi is given as 84%. The “Test E disease control rating” value in the series on Botrytis cinerea is 82%. The “Test F disease control rating” value in the series with Alternaria solani is given as 99%.
On to `Cc1c(-c2cn(C)c(=O)c(Cl)c2-c2ccc(F)cc2Cl)cccc1[N+](=O)[O-]` [Compound 54], for which the “Test A disease control rating” value in the series with Zymoseptoria tritici was determined as 100%. The “Test B disease control rating” value in series [1] is 99%. The “Test C disease control rating” value in series [2] is 0%. Further, the “Test D disease control rating” value in the series on Phakopsora pachyrhizi was found to be 75%. Also, the “Test E disease control rating” value with Botrytis cinerea was 92%. In the series with Alternaria solani, the “Test F disease control rating” value worked out at 26%.
As for `COc1cc(OC)cc(-c2cn(C)c(=O)cc2-c2ccc(F)cc2Cl)c1` [Compound 53, 4-(2-chloro-4-fluorophenyl)-5-(3,5-dimethoxyphenyl)-1-methyl-2(1H)-pyridinone], the pest or weed control at 250 ppm in the series on Zymoseptoria tritici (Zymoseptoria tritici, 250 ppm, read-out: Test A disease control rating) stood at 100%; in series [1] (Puccinia recondita, 250 ppm, read-out: Test B disease control rating), 97%; in series [2] (Blumeria graminis, 250 ppm, read-out: Test C disease control rating), 56%; in the series with Phakopsora pachyrhizi (Phakopsora pachyrhizi, 216 h, 250 ppm, read-out: Test D disease control rating), 59%; in the series with Botrytis cinerea (Botrytis cinerea, 250 ppm, read-out: Test E disease control rating) it was 99%; with Alternaria solani (Alternaria solani, 250 ppm, read-out: Test F disease control rating), 0%.
For `COc1ccc(Cl)c(-c2cn(C)c(=O)c(Br)c2-c2ccc(F)cc2Cl)c1` [Compound 33, 3-bromo-4-(2-chloro-4-fluorophenyl)-5-(2-chloro-5-methoxyphenyl)-1-methyl-2(1H)-pyridinone], the pest or weed control at 50 ppm with Zymoseptoria tritici (setting [3]) came to 100%; in series [1] (setting [4]) it was 100%; in series [2] (setting [5]), 99%; in the series on Phakopsora pachyrhizi (setting [6]), 89%; with Botrytis cinerea (setting [7]), 100%; in the series with Alternaria solani (setting [8]) it was 100%.
For the compound `COc1ccc(Cl)c(-c2cn(C)c(=O)c(Cl)c2-c2ccc(C#N)cc2Cl)c1` [Compound 56], the “Test A disease control rating” value in the series on Zymoseptoria tritici came out at 100%. The “Test B disease control rating” value in series [1] came to 100%. Also, the “Test C disease control rating” value in series [2] is given as 98%. The “Test D disease control rating” value in the series on Phakopsora pachyrhizi is on record as 97%. Also, the “Test E disease control rating” value with Botrytis cinerea came out at 96%. For the same compound, the “Test F disease control rating” value with Alternaria solani is 99%.
Regarding `COc1ccc(Cl)c(-c2cn(C)c(=O)c(Cl)c2-c2ccccc2F)c1` [Compound 61], the “Test A disease control rating” value with Zymoseptoria tritici is 100%. In series [1], the “Test B disease control rating” value is 100%. In addition, the “Test C disease control rating” value in series [2] came out at 89%. Further, the “Test D disease control rating” value in the series with Phakopsora pachyrhizi was found to be 94%. Besides, in the series with Botrytis cinerea, the “Test E disease control rating” value amounted to 98%. Besides, in the series with Alternaria solani, the “Test F disease control rating” value was 100%.
Consider `Cn1cc(-c2ccccc2)c(-c2c(F)cccc2F)c(Cl)c1=O` [Compound 11], for which the “Test A disease control rating” value in the series with Zymoseptoria tritici turned out to be 99%. Moreover, the “Test B disease control rating” value in series [1] stood at 80%. The “Test C disease control rating” value in series [2] worked out at 0%. Also, the “Test D disease control rating” value with Phakopsora pachyrhizi amounted to 0%. Further, in the series with Botrytis cinerea, the “Test E disease control rating” value worked out at 97%. Further, in the series with Alternaria solani, the “Test F disease control rating” value is reported as 94%.
Consider `COc1ccc(-c2cc(=O)n(C)cc2-c2cc(OC)ccc2Cl)c(Cl)c1` [Compound 68], for which the “Test A disease control rating” value in the series with Zymoseptoria tritici is 61%. Further, the “Test B disease control rating” value in series [1] stood at 98%. The “Test C disease control rating” value in series [2] worked out at 0%. Also, in the series with Phakopsora pachyrhizi, the “Test D disease control rating” value is 0%. Besides, the “Test E disease control rating” value in the series with Botrytis cinerea turned out to be 88%. The “Test F disease control rating” value in the series on Alternaria solani is listed as 73%.
On to `COc1ccc(F)c(-c2cn(C)c(=O)c(Cl)c2-c2ccc(F)cc2Cl)c1` [Compound 28], for which the “Test A disease control rating” value with Zymoseptoria tritici amounted to 100%. In addition, in series [1], the “Test B disease control rating” value is 100%. Moreover, the “Test C disease control rating” value in series [2] is 97%. Moreover, the “Test D disease control rating” value with Phakopsora pachyrhizi is listed as 87%. Besides, the “Test E disease control rating” value with Botrytis cinerea is 98%. In addition, the “Test F disease control rating” value with Alternaria solani is reported as 99%.
Turning to `COc1cc(OC)c(Cl)c(-c2cn(C)c(=O)c(Cl)c2-c2ccc(F)cc2Cl)c1` [Compound 4, 3-chloro-5-(2-chloro-3,5-dimethoxyphenyl)-4-(2-chloro-4-fluorophenyl)-1-methyl-2(1H)-pyridinone], the pest or weed control at 50 ppm with Zymoseptoria tritici (setting [3]) was 100%; in series [1] (setting [4]) it was 100%; in series [2] (setting [5]) it was 98%; in the series with Phakopsora pachyrhizi (setting [6]), 99%; with Botrytis cinerea (setting [7]) it was 100%; in the series with Alternaria solani (setting [8]), 100%.
As for `COc1ccc(Cl)c(-c2cn(C)c(=O)cc2-c2ccc(F)cc2Cl)c1` [Compound 31], the “Test A disease control rating” value in the series with Zymoseptoria tritici is reported as 96%. In series [1], the “Test B disease control rating” value came out at 96%. The “Test C disease control rating” value in series [2] amounted to 0%. In addition, the “Test D disease control rating” value in the series on Phakopsora pachyrhizi turned out to be 0%. The “Test E disease control rating” value with Botrytis cinerea is 99%. The “Test F disease control rating” value in the series with Alternaria solani was 0%.
